Experimental data from ChEMBL document CHEMBL1158597, “Investigation of Beckett-Casy model 2: synthesis of novel 15-16 nornaltrexone derivatives and their pharmacology” (Bioorg Med Chem Lett, 2010).

How the values were obtained:
[1] = biological target: Mu-type opioid receptor (Cavia porcellus, UniProt P97266); test: Displacement of [3H]DAMGO from mu opioid receptor in Hartley guinea pig forebrain by liquid scintillation counting
[2] = biological target: Kappa-type opioid receptor (Cavia porcellus, UniProt P41144); test: Displacement of [3H][…] from kappa opioid receptor in Hartley guinea pig cerebellum by liquid scintillation counter; format: tissue-based
[3] = Displacement of [3H]NTI from delta opioid receptor in Hartley guinea pig forebrain by liquid scintillation counter; design: species or system Cavia porcellus

Sequence of Mu-type opioid receptor (P97266 whole entry): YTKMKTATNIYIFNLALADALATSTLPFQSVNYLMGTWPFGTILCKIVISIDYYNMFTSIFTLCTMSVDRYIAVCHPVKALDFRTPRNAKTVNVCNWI
Sequence of Kappa-type opioid receptor (P41144 whole entry): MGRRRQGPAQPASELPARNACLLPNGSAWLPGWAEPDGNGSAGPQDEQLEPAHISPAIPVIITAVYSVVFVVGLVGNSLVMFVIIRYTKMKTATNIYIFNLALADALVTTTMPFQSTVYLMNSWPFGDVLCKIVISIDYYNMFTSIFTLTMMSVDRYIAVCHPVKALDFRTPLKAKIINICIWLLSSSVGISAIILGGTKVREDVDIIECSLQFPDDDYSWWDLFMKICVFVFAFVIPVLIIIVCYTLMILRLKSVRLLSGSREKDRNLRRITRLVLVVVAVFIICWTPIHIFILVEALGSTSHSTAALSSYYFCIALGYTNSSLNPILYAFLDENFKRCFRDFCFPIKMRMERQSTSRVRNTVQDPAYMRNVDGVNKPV

SMILES	Ki [1] [nM]	Ki [2] [nM]	Ki [3] [nM]	IC50 [2] [nM]	IC50 [3] [nM]	IC50 [1] [nM]
CN(CC1CC1)[C@@H]1Cc2ccc(O)c3c2[C@@H]2[C@H]1CCC(=O)[C@@H]2O3	3.36	8.81	272	–	–	–
CN(C)[C@@H]1Cc2ccc(O)c3c2[C@@H]2[C@H]1CCC(=O)[C@@H]2O3	50.9	–	–	> 1000	> 1000	–
CN[C@@H]1Cc2ccc(O)c3c2[C@H]2[C@@H](O3)C(=O)CC[C@@]12O	118	–	–	> 1000	> 1000	–
O=C1CC[C@@]2(O)[C@H](NCC3CC3)Cc3ccc(O)c4c3[C@H]2[C@H]1O4	24.7	68.4	–	–	> 1000	–
CN(C)[C@@H]1Cc2ccc(O)c3c2[C@H]2[C@@H](O3)C(=O)CC[C@]21O	8.95	–	–	> 1000	> 1000	–
CN[C@@H]1Cc2ccc(O)c3c2[C@@H]2[C@H]1CCC(=O)[C@@H]2O3	164	–	–	> 1000	> 1000	–
CN(CC1CC1)[C@@H]1Cc2ccc(O)c3c2[C@H]2[C@@H](O3)C(=O)CC[C@]21O	1.17	5.1	55.2	–	–	–
O=C1CC[C@@]23OCCN(CC4CC4)[C@@H]2Cc2ccc(O)c4c2[C@H]3[C@H]1O4	294	–	–	> 1000	> 1000	–
CN1CCO[C@@]23CCC(=O)[C@@H]4Oc5c(O)ccc(c5[C@@H]42)C[C@@H]13	–	–	–	> 1000	> 1000	> 1000
O=C1CC[C@]23OCCN4CC[C@@]25c2c(ccc(O)c2O[C@@H]15)C[C@@H]43	86	72.6	–	–	> 1000	–
O=C1CC[C@@H]2[C@H]3c4c(ccc(O)c4O[C@@H]13)C[C@H]2NCC1CC1	30.3	32.2	–	–	> 1000	–
